Data from EP4581948A1, “AEROSOLISABLE MATERIAL FOR USE IN AN ARTICLE” (BT DE Investments Inc., priority 2024, dated 2025).

Assay: Solubility study: maximum solubility of terpenes in solvent by stepwise addition and visual inspection
Assay type: physicochemical
Settings: ambient temperature (18 to 22 degrees Celsius); for Max. solubility of terpenes in solvent (% w/w) BA: solvent benzyl alcohol (BA); for Max. solubility of terpenes in solvent (% w/w) PG: solvent propylene glycol (PG); for Max. solubility of terpenes in solvent (% w/w) PG + 8% BA: solvent propylene glycol with 8%w/w benzyl alcohol
Description: A solubility study was carried out to assess the solubility of a range of terpenes in propylene glycol (PG) and benzyl alcohol (BA), and a mixture of propylene glycol (PG) and 8%w/w benzyl alcohol (BA) (materials were sourced from Sigma).
In particular, the maximum solubility at ambient temperature was assessed following the stepwise addition of each terpene to the relevant solvent or solvent mixture. Each terpene was added in aliquots to a solvent (PG, BA or a combination of PG and BA, where the BA was present in an amount of 8%w/w of the PG) and stirred at ambient temperature (18 to 22 degrees Celsius) until the terpene had fully solubilized. The next aliquot of terpene was then added.

| Max. solubility of terpenes in solvent (% w/w) BA [% w/w] | Max. solubility of terpenes in solvent (% w/w) PG [% w/w] | Max. solubility of terpenes in solvent (% w/w) PG + 8% BA [% w/w] | SMILES |
| --- | --- | --- | --- |
| 73.2 | 72.6 | 74.3 | C=C[C@](C)(O)CCC=C(C)C [R- linalool] |
| 11.0 | 1.1 | 2.4 | C=C1CC/C=C(\C)CC[C@@H]2[C@@H]1CC2(C)C [beta-caryophyllene] |
| 71.2 | 47.0 | 70.3 | CC(C)=CCCC(C)CCO (stereo not drawn) [beta-citronellol] |

| SMILES | Max. solubility of terpenes in solvent (% w/w) BA [% w/w] | Max. solubility of terpenes in solvent (% w/w) PG [% w/w] | Max. solubility of terpenes in solvent (% w/w) PG + 8% BA [% w/w] |
| --- | --- | --- | --- |
| C=CC(C)(CCC=C(C)C)OC(C)=O (stereo not drawn) [Linalyl acetate] | 34.5 | 1.4 | 6.0 |
